Data as given in patent US20040121965A1, “Method of treating resistant tumors” (Wyeth Holdings Corporation, priority 2002, published 2004).
Where two headings read alike, the source gives them in different places. Square brackets hold non-standard residues; d marks the D form. Peptide text beside a SMILES is read from it. * marks the point of attachment. X1 = COC1=CC(=O)N(C(=O)[C@@H](O*)C(C)C)[C@H]1Cc1ccccc1; NMe2Val = CC(C)[C@@H](C(=O)*)N(C)C; NMeV = CN[C@H](C(=O)O)C(C)C

Legend:
KB-HTI-4.0 = assay: Cell survival assay, KB-3-1 line made resistant to Example 129 (KB-HTI-4.0); type: cell-based, human
Description: Cells lines with previously known mechanisms of resistance. […] Res. 8: 207-218,1996); KB-3-1 (parental derived from an epidermoid carcinoma), KB-8.5, KB-V1 (Akiyama S-I, Fojo A, Hanover J A, Pastan I, Gottesman M M. Isolation and genetic characterization of human KB cell lines resistant to multiple drugs. Somatic Cell Mol. Gen., 11: 117-126,1985; Shen D-W, Cardarelli C, Hwang J, Cornwell M, Richert N, Ishii S, Pastan I, Gottesman MM. […] J. Biol. Chem., 261: 7762-7770, 1986); and HL-60 (parental derived from human leukemia) and HL60/AR (McGrath T., Center M. S. Adriamycin resistance in HL60 cells in the absence of detectable P-glycoprotein. Biochem. Res. Commun., 145:1171-1176,1987); A549 and A549.EpoB40 (He L., Yang C.-P.H., Horwitz S. B. Mutations in p-tubulin map to domains involved in regulation of microtubule stability in epothilone-resistant cell lines. Molecular Cancer Therapeutics. 1: 3-10, 2001). HCT-15 human colon carcinoma and DLD-1 human colon carcinoma are obtained from American Tissue Culture Collection. The MX-1W carcinoma is a Wyeth variant orginally obtained as MX-1 breast carcinoma from the National Cancer Institute. Cell lines selected for resistance to Representative Example 129. KB-3-1 cells are selected for resistance to Example 129 by chronically exposing cells to increasing concentrations of Example 129.
2.2. Cell Survival Assay: Standard Pharmacological Test Procedure. The concentration of candidate inhibitor required to inhibit 50% of cell growth (IC50) is done according to previously reported methods. […] Compounds are serially diluted into media as 2× stocks and 100 μl added to cells in duplicate. Compounds are incubated with cells for 3 days. At the end of the incubation period the sulforhodamine B (SRB) assay, which measures protein content as an assessment of cell survival, is performed as described previously (Skehan P, Storeng R, Scudiero D, Monks A, McMahon J, Vistica D, Warren J T, Bokesch H, Kenney S, Boyd MR. New calorimetric cytotoxicity assay for anticancer-drug screening. J Natl Cancer Inst 1990 Jul 4;82(13):1107-12) with some modification as follows. For KB-3-1 cells with 20% FCS, media is gently decanted and replaced with 200 μl of serum-free media mixed with cold 50% TCA for a final concentration of 10% TCA. The plates are incubated for 1 hr at 4° C., followed by washing 5 times in cold distilled water, then air dried overnight. The fixed cells are stained for 10 min with 80 μl of 0.04% SRB solution prepared in 1% glacial acetic acid. Stain is discarded and plates washed 5 times in 1% glacial acetic acid, then air-dried until completely dry. Stained cell product is dissolved in 150 μl of 10 mM Trizma Base and placed on a shaker for 20 minutes until fully dissolved. Absorbance is read on a Victor V multi-label plate reader (Perkin Elmer, Gaithersburg, Md.).
Cells are selected for resistance to Example 129 to understand the frequency and mechanistic basis of resistance.

KB-3-1 = assay: Cell survival assay (SRB), KB-3-1; type: cell-based, human
In short: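 Growth inhibition (IC50) is derived from SRB-measured protein content after a 3-day, duplicate exposure to serially diluted compound.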

KB-V1 (MDR1++) = assay: Cell survival assay (SRB), KB-V1 (MDR1++); conditions: for IC50: Homo sapiens, read-out: In vitro IC50 (nM) KBV1
KB-8-5 (MDR1+) = assay: Cell survival assay (SRB), KB-8-5 (MDR1+); conditions: for IC50: Homo sapiens, MDR1, read-out: In vitro IC50 (nM) KB85
[1] = system: Human Melanoma Carcinoma Lox; conditions: staged LOX xenograft; at MTD ('<': MTD not achieved); days 11-15
Method: 2.4. Growth of Tumors in Nude Mice. […] In these experiments, xenografts are implanted subcutaneously into the flanks of nude mice. […] Relative tumor mass compared to controls are assessed during the 21-day post-staging period.
Groups of 5 female nu/nu mice are injected with 1.5×10^6 KB-3-1 (A) or Lox cells (B). […] Relative tumor growth is determined during the experiment and % T/C calculated. Statistical analyses are Student's t-test of treated time points vs. vehicle (*, P<0.05; **, P<0.01)

[2] = Homo sapiens, KB-3-1 line made resistant to Example 129, Table 8, read-out: KB-HTI-4.0 IC50
[3] = Homo sapiens, KB-3-1 parental, Table 8, read-out: KB-3-1 IC50
[4] = Homo sapiens, KB 3-1, 72 h, amount of drug needed to kill 50% of cells after three days continuous exposure, Table 11, read-out: IC50 in parental cell line KB-3-1
[5] = Homo sapiens, KB 3-1, KB-3-1 cells (paclitaxel-sensitive parent), read-out: In vitro IC50 (nM) KB-3-1

With `C(=N\NC1=NCCN1)/c1c2ccccc2c(/C=N/NC2=NCCN2)c2ccccc12` [Bisantrene] the IC50 (KB-HTI-4.0; [2]) was 299 ± 91 nM, the “(RR) relative resistance vs. parental cells” value (KB-HTI-4.0; KB-HTI-4.0 vs KB-3-1) was “(3)” and the IC50 (KB-3-1; [3]) was 119 ± 47 nM.
With `CC[C@@]1(O)C(=O)OCc2c1cc1n(c2=O)Cc2cc3ccccc3nc2-1` [Camptothecin, camptothecin] the IC50 (KB-HTI-4.0; [2]) was 335 ± 157 nM, the “(RR) relative resistance vs. parental cells” value (KB-HTI-4.0; KB-HTI-4.0 vs KB-3-1) was “(23)” and the IC50 (KB-3-1; [3]) was 14.9 ± 6.11 nM.
With `COC1=CC(=O)N(C(=O)[C@@H](OC(=O)[C@@H]2CCCN2C(=O)[C@@H]2CCCN2C(=O)[C@H](C(C)C)N(C)C(=O)[C@@H](NC(=O)[C@H](C(C)C)N(C)C)C(C)C)C(C)C)[C@H]1Cc1ccccc1` [Dolastatin −15] (NMe2Val-V[NMeV]PP-X1) the IC50 (KB-HTI-4.0; KB-3-1 line made resistant to Example 129, Table 8, read-out: KB-HTI-4.0 IC50) was 0.49 ± 0.14 nM, the “(RR) relative resistance vs. parental cells” value (KB-HTI-4.0; KB-HTI-4.0 vs KB-3-1) was “(12)” and the IC50 (KB-3-1; KB-3-1 parental, Table 8, read-out: KB-3-1 IC50) was 0.04 ± 0.05 nM.
`CO[C@]12C=C[C@](C)(O1)[C@@H](OC(=O)/C=C/c1cn(C)cn1)C[C@H]1C(C)=CC[C@H](C(C)C)[C@H]1/C=C\2CO[C@@H]1OC[C@@H](O)[C@@H](O)[C@@H]1OC(C)=O` [Eleutherobin] was tested, and the “(RR) relative resistance vs. parental cells” value (KB-HTI-4.0) was “(1)”, the IC50 (KB-HTI-4.0; Homo sapiens, KB 3-1, read-out: KB-HTI-4.0 IC50, nM) was 21.3 ± 4.4 nM and the IC50 (KB-3-1; Homo sapiens, KB 3-1, read-out: KB-3-1 IC50, nM) was 17.4 ± 1.63 nM.
`CN[C@H](C(=O)N[C@H](C(=O)N(C)[C@H](/C=C(\C)C(=O)O)C(C)C)C(C)(C)C)C(C)(C)c1cccc(Cl)c1` [Example 2, 3-Chloro-N,β,β-trimethyl-L-phenylalanyl-N^1-[(1S,2E)-3-carboxy-1-isopropyl-2-butenyl]-N^1,3-dimethyl-L-valinamide] was tested, and the IC50 (KB-3-1; [4]) was 1.1 nM, the IC50 (KB-3-1; [5]) was 1.14 nM and the “Ratio KBV1/KB” value (KB-V1 (MDR1++)) was 80.0. For the same molecule, the IC50 (KB-V1 (MDR1++)) was 91 nM, the “Ratio KB85/KB” value (KB-8-5 (MDR1+)) was 2.8 and the IC50 (KB-8-5 (MDR1+)) was 3.2 nM. The “Activity in nude mice animal model (% T/C @ MTD on days 11-15) LOX” value [1] was 9%.
With `C=CC(C)(C)[C@H](NC(=O)[C@@H](NC)C(C)(C)c1ccccc1)C(=O)N(C)[C@H](/C=C(\C)C(=O)O)C(C)C` [Example 120, (2E,4S)4-[{(2S)-3,3-dimethyl-2-[(N,β,β-trimethyl-L-phenylalanyl)amino]4-pentenoyl}(methyl)amino]-2,5-dimethyl-2-hexenoic Acid] the IC50 (KB-3-1; [4]) was 3.5 nM and the “Activity in nude mice animal model (% T/C @ MTD on days 11-15) LOX” value [1] was 20%.
`CN[C@H](C(=O)N[C@H](C(=O)N(C)[C@H](/C=C(\C)C(=O)O)C(C)C)C(C)(C)O)C(C)(C)c1ccccc1` [Example 156, N,β,β-trimethyl-L-phenylalanyl-N^1-[(1S,2E)-3-carboxy-1-isopropylbut-2-enyl]-3-hydroxy-N^1-methyl-L-valinamide] was tested, and the IC50 (KB-3-1; [5]) was 58 nM, the “Ratio KBV1/KB” value (KB-V1 (MDR1++)) was 51.7 and the IC50 (KB-V1 (MDR1++)) was over 3000 nM. For the same molecule, the “Ratio KB85/KB” value (KB-8-5 (MDR1+)) was 1.6 and the IC50 (KB-8-5 (MDR1+)) was 95 nM.
With `CN[C@H](C(=O)N[C@H](C(=O)N(C)[C@@H](/C=C(\C)C(=O)O)C(C)C)C(C)(C)C)C(C)(C)c1ccccc1` [Example 157, N,β,β-trimethyl-L-phenylalanyl-N^1-[(1R,2E)-3-carboxy-1-isopropylbut-2-enyl]-N^1,3-dimethyl-L-valinamide] the IC50 (KB-3-1; Homo sapiens, KB 3-1, read-out: In vitro IC50 (nM) KB-3-1) was 605 nM, the “Ratio KBV1/KB” value (KB-V1 (MDR1++)) was 5.0 and the IC50 (KB-V1 (MDR1++)) was over 3000 nM. The “Ratio KB85/KB” value (KB-8-5 (MDR1+)) was 2.7 and the IC50 (KB-8-5 (MDR1+)) was 1650 nM.
